Experimental data taken from ChEMBL document CHEMBL3044826, “Design, synthesis and biological evaluation of some novel substituted 2-mercapto-3-phenethylquinazolines as antitumor agents” (2013).

Tests used:
Assay type in all cases: functional
[1] = test system: UO-31; assay: Cytotoxicity against Homo sapiens (human) UO31 cells assessed as growth inhibition at 10 uM after 48 hr by coulter counter analysis; settings: UO-31, 48 h, read-out: GI
[2] = test system: NCI-H322M; assay: Cytotoxicity against Homo sapiens (human) NCI-H322M cells assessed as growth inhibition at 10 uM after 48 hr by coulter counter analysis; settings: read-out: GI
[3] = test system: A498; assay: Cytotoxicity against Homo sapiens (human) A498 cells assessed as growth inhibition at 10 uM after 48 hr by coulter counter analysis; settings: A498, 48 h, read-out: GI
[4] = test system: NCI-H23; assay: Cytotoxicity against Homo sapiens (human) NCI-H23 cells assessed as growth inhibition at 10 uM after 48 hr by coulter counter analysis; settings: NCI-H23, 48 h, read-out: GI
[5] = test system: COLO 205; assay: Cytotoxicity against Homo sapiens (human) COLO205 cells assessed as growth inhibition at 10 uM after 48 hr by coulter counter analysis; settings: COLO 205, 48 h, read-out: GI
[6] = test system: EKVX; assay: Cytotoxicity against Homo sapiens (human) EKVX cells assessed as growth inhibition at 10 uM after 48 hr by coulter counter analysis; settings: read-out: GI
[7] = test system: SF-268; assay: Cytotoxicity against Homo sapiens (human) SF268 cells assessed as growth inhibition at 10 uM after 48 hr by coulter counter analysis; settings: SF-268, 48 h, read-out: GI
[8] = test system: SF-539; assay: Cytotoxicity against Homo sapiens (human) SF539 cells assessed as growth inhibition at 10 uM after 48 hr by coulter counter analysis; settings: SF-539, 48 h, read-out: GI
[9] = test system: SN12C; assay: Cytotoxicity against Homo sapiens (human) SN12C cells assessed as growth inhibition at 10 uM after 48 hr by coulter counter analysis; settings: read-out: GI
[10] = test system: LOX IMVI; assay: Cytotoxicity against Homo sapiens (human) LOXIMVI cells assessed as growth inhibition at 10 uM after 48 hr by coulter counter analysis; settings: read-out: GI
[11] = test system: MDA-MB-468; assay: Cytotoxicity against Homo sapiens (human) MDA-MB-468 cells assessed as growth inhibition at 10 uM after 48 hr by coulter counter analysis; settings: MDA-MB-468, 48 h, read-out: GI
[12] = test system: M14; assay: Cytotoxicity against Homo sapiens (human) M14 cells assessed as growth inhibition at 10 uM after 48 hr by coulter counter analysis; settings: M14, 48 h, read-out: GI
[13] = test system: HCC 2998; assay: Cytotoxicity against Homo sapiens (human) HCC2998 cells assessed as growth inhibition at 10 uM after 48 hr by coulter counter analysis; settings: HCC 2998, 48 h, read-out: GI
[14] = test system: ACHN; assay: Cytotoxicity against Homo sapiens (human) ACHN cells assessed as growth inhibition at 10 uM after 48 hr by coulter counter analysis; settings: read-out: GI
[15] = test system: OVCAR-8; assay: Cytotoxicity against Homo sapiens (human) OVCAR8 cells assessed as growth inhibition at 10 uM after 48 hr by coulter counter analysis; settings: OVCAR-8, 48 h, read-out: GI
[16] = test system: MCF7; assay: Cytotoxicity against Homo sapiens (human) MCF7 cells assessed as growth inhibition at 10 uM after 48 hr by coulter counter analysis; settings: MCF7, 48 h, read-out: GI
[17] = test system: OVCAR-3; assay: Cytotoxicity against Homo sapiens (human) OVCAR3 cells assessed as growth inhibition at 10 uM after 48 hr by coulter counter analysis; settings: OVCAR-3, 48 h, read-out: GI
[18] = test system: DU-145; assay: Cytotoxicity against Homo sapiens (human) DU145 cells assessed as growth inhibition at 10 uM after 48 hr by coulter counter analysis; settings: DU-145, 48 h, read-out: GI
[19] = test system: SK-MEL-5; assay: Cytotoxicity against Homo sapiens (human) SK-MEL-5 cells assessed as growth inhibition at 10 uM after 48 hr by coulter counter analysis; settings: SK-MEL-5, 48 h, read-out: GI
[20] = test system: SNB-75; assay: Cytotoxicity against Homo sapiens (human) SNB75 cells assessed as growth inhibition at 10 uM after 48 hr by coulter counter analysis; settings: SNB-75, 48 h, read-out: GI
[21] = test system: PC-3; assay: Cytotoxicity against Homo sapiens (human) PC3 cells assessed as growth inhibition at 10 uM after 48 hr by coulter counter analysis; settings: PC-3, 48 h, read-out: GI
[22] = test system: RXF 393; assay: Cytotoxicity against Homo sapiens (human) RXF393 cells assessed as growth inhibition at 10 uM after 48 hr by coulter counter analysis; settings: RXF 393, 48 h, read-out: GI
[23] = Cytotoxicity against Homo sapiens (human) NCI-ADR-RES cells assessed as growth inhibition at 10 uM after 48 hr by coulter counter analysis; settings: read-out: GI
[24] = test system: SK-MEL-28; assay: Cytotoxicity against Homo sapiens (human) SK-MEL-28 cells assessed as growth inhibition at 10 uM after 48 hr by coulter counter analysis; settings: SK-MEL-28, 48 h, read-out: GI
[25] = test system: UACC-62; assay: Cytotoxicity against Homo sapiens (human) UACC62 cells assessed as growth inhibition at 10 uM after 48 hr by coulter counter analysis; settings: UACC-62, 48 h, read-out: GI
[26] = test system: HT-29; assay: Cytotoxicity against Homo sapiens (human) HT-29 cells assessed as growth inhibition at 10 uM after 48 hr by coulter counter analysis; settings: HT-29, 48 h, read-out: GI
[27] = test system: OVCAR-4; assay: Cytotoxicity against Homo sapiens (human) OVCAR4 cells assessed as growth inhibition at 10 uM after 48 hr by coulter counter analysis; settings: OVCAR-4, 48 h, read-out: GI
[28] = test system: OVCAR-5; assay: Cytotoxicity against Homo sapiens (human) OVCAR5 cells assessed as growth inhibition at 10 uM after 48 hr by coulter counter analysis; settings: OVCAR-5, 48 h, read-out: GI
[29] = test system: CAKI-1; assay: Cytotoxicity against Homo sapiens (human) Caki1 cells assessed as growth inhibition at 10 uM after 48 hr by coulter counter analysis; settings: CAKI-1, 48 h, read-out: GI
[30] = test system: A549; assay: Cytotoxicity against Homo sapiens (human) A549 cells assessed as growth inhibition at 10 uM after 48 hr by coulter counter analysis; settings: A549, 48 h, read-out: GI
[31] = test system: HCT-15; assay: Cytotoxicity against Homo sapiens (human) HCT15 cells assessed as growth inhibition at 10 uM after 48 hr by coulter counter analysis; settings: HCT-15, 48 h, read-out: GI
[32] = test system: TK-10; assay: Cytotoxicity against Homo sapiens (human) TK10 cells assessed as growth inhibition at 10 uM after 48 hr by coulter counter analysis; settings: TK-10, 48 h, read-out: GI
[33] = test system: U-251; assay: Cytotoxicity against Homo sapiens (human) U251 cells assessed as growth inhibition at 10 uM after 48 hr by coulter counter analysis; settings: U-251, 48 h, read-out: GI
[34] = test system: KM12; assay: Cytotoxicity against Homo sapiens (human) KM12 cells assessed as growth inhibition at 10 uM after 48 hr by coulter counter analysis; settings: KM12, 48 h, read-out: GI

O=C(CSc1nc2ccccc2c(=O)n1CCc1ccccc1)c1ccc(F)cc1
inhibition of growth at 10 µM [1]: 42% | inhibition of growth at 10 µM [2]: 13% | inhibition of growth at 10 µM [3]: < 10% | inhibition of growth at 10 µM [4]: 20% | inhibition of growth at 10 µM [5]: < 10% | inhibition of growth at 10 µM [6]: 16% | inhibition of growth at 10 µM [7]: 25% | inhibition of growth at 10 µM [8]: 13% | inhibition of growth at 10 µM [9]: < 10% | inhibition of growth at 10 µM [10]: < 10% | inhibition of growth at 10 µM [11]: < 10% | inhibition of growth at 10 µM [12]: < 10% | inhibition of growth at 10 µM [13]: < 10% | inhibition of growth at 10 µM [14]: 24% | inhibition of growth at 10 µM [15]: 31% | inhibition of growth at 10 µM [16]: < 10% | inhibition of growth at 10 µM [17]: < 10% | inhibition of growth at 10 µM [18]: < 10% | inhibition of growth at 10 µM [19]: < 10% | inhibition of growth at 10 µM [20]: < 10% | inhibition of growth at 10 µM [21]: 13% | inhibition of growth at 10 µM [22]: < 10% | inhibition of growth at 10 µM [23]: < 10% | inhibition of growth at 10 µM [24]: < 10% | inhibition of growth at 10 µM [25]: < 10% | inhibition of growth at 10 µM [26]: < 10% | inhibition of growth at 10 µM [27]: < 10% | inhibition of growth at 10 µM [28]: < 10% | inhibition of growth at 10 µM [29]: 21% | inhibition of growth at 10 µM [30]: 11% | inhibition of growth at 10 µM [31]: < 10% | inhibition of growth at 10 µM [32]: < 10% | inhibition of growth at 10 µM [33]: 19% | inhibition of growth at 10 µM [34]: < 10%

O=c1c2ccccc2nc(SCCN2CCOCC2)n1CCc1ccccc1
inhibition of growth at 10 µM [1]: 14% | inhibition of growth at 10 µM [2]: < 10% | inhibition of growth at 10 µM [3]: < 10% | inhibition of growth at 10 µM [4]: < 10% | inhibition of growth at 10 µM [5]: < 10% | inhibition of growth at 10 µM [6]: < 10% | inhibition of growth at 10 µM [7]: < 10% | inhibition of growth at 10 µM [8]: < 10% | inhibition of growth at 10 µM [9]: < 10% | inhibition of growth at 10 µM [10]: < 10% | inhibition of growth at 10 µM [11]: < 10% | inhibition of growth at 10 µM [12]: < 10% | inhibition of growth at 10 µM [13]: < 10% | inhibition of growth at 10 µM [14]: < 10% | inhibition of growth at 10 µM [15]: < 10% | inhibition of growth at 10 µM [16]: < 10% | inhibition of growth at 10 µM [17]: < 10% | inhibition of growth at 10 µM [18]: < 10% | inhibition of growth at 10 µM [19]: < 10% | inhibition of growth at 10 µM [20]: < 10% | inhibition of growth at 10 µM [21]: 14% | inhibition of growth at 10 µM [22]: < 10% | inhibition of growth at 10 µM [23]: < 10% | inhibition of growth at 10 µM [24]: < 10% | inhibition of growth at 10 µM [25]: < 10% | inhibition of growth at 10 µM [26]: < 10% | inhibition of growth at 10 µM [27]: < 10% | inhibition of growth at 10 µM [28]: < 10% | inhibition of growth at 10 µM [29]: < 10% | inhibition of growth at 10 µM [30]: < 10% | inhibition of growth at 10 µM [31]: < 10% | inhibition of growth at 10 µM [32]: < 10% | inhibition of growth at 10 µM [33]: < 10% | inhibition of growth at 10 µM [34]: < 10%

O=c1c2ccccc2nc(SCc2nnc(S)n2-c2ccccc2)n1CCc1ccccc1
inhibition of growth at 10 µM [1]: 30% | inhibition of growth at 10 µM [2]: < 10% | inhibition of growth at 10 µM [3]: 41% | inhibition of growth at 10 µM [4]: < 10% | inhibition of growth at 10 µM [5]: < 10% | inhibition of growth at 10 µM [6]: 31% | inhibition of growth at 10 µM [7]: < 10% | inhibition of growth at 10 µM [8]: < 10% | inhibition of growth at 10 µM [9]: < 10% | inhibition of growth at 10 µM [10]: < 10% | inhibition of growth at 10 µM [11]: < 10% | inhibition of growth at 10 µM [12]: < 10% | inhibition of growth at 10 µM [13]: < 10% | inhibition of growth at 10 µM [14]: < 10% | inhibition of growth at 10 µM [15]: < 10% | inhibition of growth at 10 µM [16]: 28% | inhibition of growth at 10 µM [17]: < 10% | inhibition of growth at 10 µM [18]: < 10% | inhibition of growth at 10 µM [19]: 24% | inhibition of growth at 10 µM [20]: < 10% | inhibition of growth at 10 µM [21]: 30% | inhibition of growth at 10 µM [22]: < 10% | inhibition of growth at 10 µM [23]: < 10% | inhibition of growth at 10 µM [24]: < 10% | inhibition of growth at 10 µM [25]: 19% | inhibition of growth at 10 µM [26]: < 10% | inhibition of growth at 10 µM [27]: < 10% | inhibition of growth at 10 µM [28]: < 10% | inhibition of growth at 10 µM [29]: 17% | inhibition of growth at 10 µM [30]: < 10% | inhibition of growth at 10 µM [31]: 25% | inhibition of growth at 10 µM [32]: < 10% | inhibition of growth at 10 µM [33]: 11% | inhibition of growth at 10 µM [34]: < 10%
